Data from publication PMC10606064, “2-Aminothiazole-Flavonoid Hybrid Derivatives Binding to Tau Protein and Responsible for Antitumor Activity in Glioblastoma” (International Journal of Molecular Sciences, 2023).

Key:
[1] = system: LC3 proteins in U87 shCTRL and shTau cells; assay: LC3-II/LC3-I ratio by Western blot (autophagosomes); format: cell-based, human; details: both cell types, 5 µM, 48 h
Method: Cells were lysed with freshly made RIPA buffer derivative (4.3 mL of TBS 1×, 50 µL of SDS 10%, 10 µL of EDTA 0.5 M, 500 µL of Triton 10×, and 1% inhibitors of protease and phosphatase). After 30 min of lysis at 4 °C under agitation, lysates were centrifuged at 10,000× g for 10 min at 4 °C. Equivalent amounts of proteins from the supernatant fraction were subjected to Western blot analysis. Protein samples were loaded (40 μg/lane) and separated on 10 or 12% sodium dodecyl sulfate-polyacrylamide gels. The separated proteins were transferred onto nitrocellulose blotting membrane using the Bio-Rad transfer system. […] The band intensity was quantified using the ImageJ v1.50g software. […] The band intensity was quantified using the NIH ImageJ v1.50g software.
Figure 4 Compounds (2) and (9) affect autophagy function machinery and alter mitochondrial morphology. […] (A) Quantities of autophagy LC3 proteins were analyzed by Western blot of U87 shCTRL and U87 shTau cells: for each sample, the ratio of the amount of mature (LC3-II) to immature (LC3-I) isoform was calculated as relative fold of the reference value (with or without the compound); significant statistical differences were calculated using one-way ANOVA with a post hoc Tukey–Kramer HSD test with (*) p < 0.01 from three independent experiments; ns: non-significant. […]

[2] = system: U87 shCTRL cells; assay: Cell cycle by flow cytometry (propidium iodide), U87 shCTRL; format: cell-based, human; details: 48 h
Method: Measurements of cell cycle from DNA content were performed by flow cytometry as described before. Briefly, 4.10^5 cells in exponential growth were seeded in 6-well plates. After 24 h, they were treated with 10 µM of compounds for 48 h. Nocodazole was used as a positive control with a concentration of 1 µM. The trypsinized cells were harvested and then centrifuged (1200 rpm, 5 min, at room temperature). The cell pellet was resuspended in 1 mL of PBS 1× at 4 °C, and then an extra 4 mL of cold PBS was added to wash the pellet. Cells were then centrifuged again (1200 rpm, 5 min, at 4 °C). To fixate the cells, the pellet was resuspended in 100 µL of cold 70% ethanol, then an additional 900 µL was added and cells were incubated for 30 min at −20 °C. After that, 9 mL of cold PBS was added, and cells were centrifuged (2000 rpm, 5 min, at 4 °C) to remove ethanol. The cell pellet was then resuspended in the staining mix containing 50 µg.mL^−1 of propidium iodide (Molecular Probes, Paris, France) and 100 µg.mL^−1 of RNAse A (Sigma-Aldrich, Saint-Quentin-Fallavier, France) in PBS for 20 min at room temperature in darkness. Samples were analyzed on a Beckman–Coulter–Gallios flow cytometer using the Kaluza for Gallios Acquisition v1.0 software. Propidium iodide was excited at 488 nm, and fluorescence was analyzed at 620 nm on channel FL-3. For the analysis, there is considerable overlap between early S phase and G1 and between late S phase and G2/M due to broadening of the distribution caused by variability in the staining of the cells and instrumental variability. Therefore, the percentages of cells in the sub-G1, G1, S, and G2/M phases of the cell cycle were calculated using the Watson et al. algorithm for cell cycle analysis in Kaluza for Gallios Analysis v2.1 software. The software automatically adjusted gates based on PI median fluorescence intensity of the cells and their frequency among total cells. The number of cells in each phase was divided by the total number of analyzed cells, and the values were reported as percentage of the total cells for each cell cycle phase.

SMILES | ratio of mature LC3-II to immature LC3-I [1] | effect on cell cycle progression ([2]; 10 µM) | %G1 (cells in G1 phase) ([2]; compounds 10 µM, NOC 1 µM) | %G2/M (cells in G2/M phase) ([2]; compounds 10 µM, NOC 1 µM)
Nc1nc2ccc3oc(-c4cccc(Oc5ccccc5)c4)cc(=O)c3c2s1 [Compound 2, 2-amino-7-(3-phenoxyphenyl)-9H-chromeno [6,5-d]thiazol-9-one] | no statistically significant changes in ratios | no significant effect on cell cycle progression |  | 
Nc1nc2ccc3oc(C(=O)O)cc(=O)c3c2s1 [Compound 5] | no statistically significant changes in ratios |  | 53 ± 4% | 34 ± 5%
